The text below walks through data of patent US11306096B2, “4,6 dihydropyrrolo [3,4-C] pyrazole-5 (1H)-carbonitrile derivates for treating cancer” (MISSION THERAPEUTICS LIMITED, priority 2016, dated 2022).

Bounds are passed on as bounds.

Usually IC50 stands for the point on the concentration scale where inhibition reaches its midpoint.

Chain of USP7 (Q93009 whole entry): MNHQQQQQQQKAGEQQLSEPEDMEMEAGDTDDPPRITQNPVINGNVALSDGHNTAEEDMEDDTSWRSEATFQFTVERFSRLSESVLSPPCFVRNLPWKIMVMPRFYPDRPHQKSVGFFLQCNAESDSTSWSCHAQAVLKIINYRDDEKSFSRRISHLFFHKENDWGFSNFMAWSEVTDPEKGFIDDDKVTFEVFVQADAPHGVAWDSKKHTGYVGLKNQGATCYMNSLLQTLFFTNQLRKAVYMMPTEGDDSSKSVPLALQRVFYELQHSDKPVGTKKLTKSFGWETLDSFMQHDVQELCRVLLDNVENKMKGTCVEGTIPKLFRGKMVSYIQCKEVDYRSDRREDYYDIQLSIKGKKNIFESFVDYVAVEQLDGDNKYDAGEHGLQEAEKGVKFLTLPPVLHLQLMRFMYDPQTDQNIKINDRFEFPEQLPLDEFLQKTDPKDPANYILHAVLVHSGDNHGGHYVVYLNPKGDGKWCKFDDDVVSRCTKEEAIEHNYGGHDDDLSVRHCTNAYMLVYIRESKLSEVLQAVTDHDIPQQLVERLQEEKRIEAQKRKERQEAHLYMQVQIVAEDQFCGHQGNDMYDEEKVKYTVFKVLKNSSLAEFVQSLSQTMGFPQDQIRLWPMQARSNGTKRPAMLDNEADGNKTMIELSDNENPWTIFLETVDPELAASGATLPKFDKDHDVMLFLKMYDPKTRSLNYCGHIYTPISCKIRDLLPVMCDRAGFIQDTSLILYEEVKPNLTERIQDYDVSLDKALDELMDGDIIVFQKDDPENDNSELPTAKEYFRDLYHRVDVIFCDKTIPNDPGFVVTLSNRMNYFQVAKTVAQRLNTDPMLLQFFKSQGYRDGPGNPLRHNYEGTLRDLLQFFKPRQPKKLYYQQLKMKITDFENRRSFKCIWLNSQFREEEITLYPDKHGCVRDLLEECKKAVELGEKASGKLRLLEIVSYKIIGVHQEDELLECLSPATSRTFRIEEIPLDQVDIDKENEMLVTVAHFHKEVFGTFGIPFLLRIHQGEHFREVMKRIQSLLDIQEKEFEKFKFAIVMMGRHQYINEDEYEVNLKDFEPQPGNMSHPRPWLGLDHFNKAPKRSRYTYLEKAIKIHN

In the test the target is USP7 (Homo sapiens (Human), UniProt Q93009). Description: USP7 Biochemical IC50 Assay. As to conditions: FLAG-USP7; enzyme and compound incubated 30 min at room temp; TAMRA labelled peptide-ubiquitin fluorescence polarisation substrate; read after 2 hr; read-out: IC50 range. The method, then:
The USP7 construct was PCR amplified and cloned into a pFLAG-CMV-6a vector (Sigma-Aldrich) with an N-terminal FLAG tag. HEK293T cells were transfected with FLAG-USP7 using TransIT-LT1 transfection reagent (Mirus) according to the manufacturer's instructions. Cells were harvested 40 hours after transfection. […] The resin was washed two times with low salt buffer plus protease inhibitors (complete mini, Roche) and phosphatase inhibitors (PhosSTOP mini, Roche) and one time with high salt buffer (20 mM Tris, pH 7.5, 500 mM NaCl, 0.5 mM EDTA, 5 mM beta-mercaptoethanol, protease inhibitors (complete mini, Roche) and phosphatase inhibitors (PhosSTOP mini, Roche). To elute the bound USP7, elution buffer (10 mM Tris, pH 7.5, 150 mM NaCl, 0.5 mM EDTA, 10% glycerol, 0.5% NP40, 5 mM beta-mercaptoethanol, 0.15 mg/ml 3×FLAG peptide (Sigma-Aldrich)) was added to the resin and incubated at 4° C. for 2.5 hours rotating. The resin was centrifuged at 4000 rpm for 30 seconds, and the supernatant containing purified FLAG-USP7 was removed and stored at −80° C.
USP7 Biochemical IC50 Assay
A typical 8-point dilution series would be 100, 30, 10, 3, 1, 0.3, 0.1, 0.03 μM final. […] Either 1 μl of 50% DMSO or diluted compound was added to the plate. USP7 was diluted in reaction buffer (20 mM Tris, pH 7.5, 100 mM NaCl, 0.05% Tween 20, 0.5 mg/ml BSA, 5 mM—beta mercaptoethanol) to the equivalent of 0.0025 μl/well and 10 μl of diluted USP7 was added to the compound. Enzyme and compound were incubated for 30 min at room temp. Reactions were initiated by the addition of 50 nM of TAMRA labelled peptide linked to ubiquitin via an iso-peptide bond as fluorescence polarisation substrate. Reactions were read immediately after addition of substrate and following a 2 hr incubation at room temperature. Readings were performed on a Pherastar Plus (BMG Labtech). λ Excitation 540 nm; λ Emission 590 nm.
(In general: In fluorescence polarisation assays a small probe gives low polarisation when free and higher when bound to something large.)
Take `N#CN1Cc2cnn(-c3cccc(NS(=O)(=O)C4CC4)c3)c2C1` [Example 78, N-(3-(5-Cyano-5,6-dihydropyrrolo[3,4-c]pyrazol-1(4H)-yl)phenyl) cyclopropanesulfonamide]: the IC50 fell in the range of 10 to 30 µM.

For the molecule `N#CN1Cc2cnn(-c3cc(C(N)=O)n[nH]3)c2C1` [Example 28, 5-(5-Cyano-5,6-dihydropyrrolo[3,4-c]pyrazol-1(4H)-yl)-1H-pyrazole-3-carboxamide], the IC50 lay in the range of 10 to 30 µM.

For the molecule `CC(C)n1nc(-c2ccccc2)c2c1CN(C#N)C2` [Example 23, 1-Isopropyl-3-phenyl-4,6-dihydropyrrolo[3,4-c]pyrazole-5(1H)-carbonitrile], the IC50 was less than 10 µM.

Take `CN1CCN(c2cccc(-c3n[nH]c4c3CN(C#N)C4)c2)CC1` [Example 71, 3-(3-(4-Methylpiperazin-1-yl)phenyl)-4,6-dihydropyrrolo[3,4-c]pyrazole-5(1H)-carbonitrile]: the IC50 is less than 10 µM.

Consider `N#CN1Cc2[nH]nc(-c3ccc(OCc4ccccc4)cc3)c2C1` [Example 37, 3-(4-(Benzyloxy)phenyl)-4,6-dihydropyrrolo[3,4-c]pyrazole-5(1H)-carbonitrile], for which the IC50 was less than 10 µM.

As to `CN1CCN(C(=O)c2ccc(-c3n[nH]c4c3CN(C#N)C4)cc2)CC1` [Example 51, 3-(4-(4-Methylpiperazine-1-carbonyl)phenyl)-4,6-dihydropyrrolo[3,4-c]pyrazole-5(1H)-carbonitrile], the IC50 is less than 10 µM.

For `Cc1ccc(F)c(-c2c3c(nn2C)CN(C#N)C3)c1` [Example 61, 3-(2-fluoro-5-methylphenyl)-2-methyl-2,6-dihydropyrrolo[3,4-c]pyrazole-5(4H)-carbonitrile], the IC50 was in the range of 10 to 30 µM.

In the case of `N#CN1Cc2c(Nc3ccccn3)nn(-c3ccc(C(N)=O)cc3)c2C1` [Example 33, 4-(5-Cyano-3-(pyridin-2-ylamino)-5,6-dihydropyrrolo[3,4-c]pyrazol-1(4H)-yl)benzamide], the IC50 was 10 to 30 µM.

Turning to `N#CN1Cc2cnn(-c3ccccc3F)c2C1` [Example 4, 1-(2-Fluorophenyl)-4,6-dihydropyrrolo[3,4-c]pyrazole-5(1H)-carbonitrile], the IC50 was 10 to 30 µM.

For the molecule `N#CN1Cc2[nH]nc(-c3ccc(C(=O)NCc4ccccc4)cc3F)c2C1` [Example 79, N-Benzyl-4-(5-cyano-1,4,5,6-tetrahydropyrrolo[3,4-c]pyrazol-3-yl)-3-fluorobenzamide], the IC50 is less than 10 µM.

For `N#CN1Cc2[nH]nc(-c3cc(OC(F)(F)F)ccc3Cl)c2C1` [Example 44, 3-(2-Chloro-5-(trifluoro-methoxy)phenyl)-4,6-dihydropyrrolo[3,4-c]pyrazole-5(1H)-carbonitrile], the IC50 is less than 10 µM.

In the case of `CN1CCN(c2ccc(-c3n[nH]c4c3CN(C#N)C4)cc2)CC1` [Example 66, 3-(4-(4-Methylpiperazin-1-yl)phenyl)-4,6-dihydro-pyrrolo[3,4-c]pyrazole-5(1H)-carbonitrile], the IC50 was less than 10 µM.

As to `N#CN1Cc2[nH]nc(CNC(=O)c3cn4cc(Cl)ccc4n3)c2C1` [Example 65, 6-Chloro-N-((5-cyano-1,4,5,6-tetrahydropyrrolo[3,4-c]pyrazol-3-yl)methyl)-imidazo[1,2-a]pyridine-2-carboxamide], the IC50 was less than 10 µM.

For `N#CN1Cc2cnn(-c3n[nH]c4ccccc34)c2C1` [Example 19, 1-(1H-Indazol-3-yl)-4,6-dihydropyrrolo[3,4-c]pyrazole-5(1H)-carbonitrile], the IC50 was less than 10 µM.

Regarding `N#CN1Cc2[nH]nc(-c3ccc(N4CCOCC4)cc3)c2C1` [Example 72, 3-(4-Morpholinophenyl)-4,6-dihydropyrrolo[3,4-c]pyrazole-5(1H)-carbonitrile], the IC50 was less than 10 µM.

As for `Cn1nccc1-c1n[nH]c2c1CN(C#N)C2` [Example 39, 3-(1-Methyl-1H-pyrazol-5-yl)-4,6-dihydropyrrolo[3,4-c]pyrazole-5(1H)-carbonitrile], the IC50 lay in the range of 10 to 30 µM.

Consider `CNC(=O)c1cc(-n2ncc3c2CN(C#N)C3)ccc1OC` [Example 18, 5-(5-Cyano-5,6-dihydropyrrolo[3,4-c]pyrazol-1(4H)-yl)-2-methoxy-N-methylbenzamide], for which the IC50 was in the range of 30 to 100 µM.

As for `COc1cccc(-n2ncc3c2CN(C#N)C3)c1` [Example 7, 1-(3-Methoxyphenyl)-4,6-dihydropyrrolo[3,4-c]pyrazole-5(1H)-carbonitrile], the IC50 is 10 to 30 µM.

Take `Cn1nc2c(c1-c1ccccc1)CN(C#N)C2` [Example 22, 2-Methyl-3-phenyl-2,6-dihydropyrrolo[3,4-c]pyrazole-5(4H)-carbonitrile]: the IC50 is less than 10 µM.

Take `N#CN1Cc2cnn(-c3cnc4ccccc4c3)c2C1` [Example 6, 1-(Quinolin-3-yl)-4,6-dihydropyrrolo[3,4-c]pyrazole-5(1H)-carbonitrile]: the IC50 was less than 10 µM.

In the case of `CNC(=O)c1ccc(-c2n[nH]c3c2CN(C#N)C3)cn1` [Example 45, 5-(5-Cyano-1,4,5,6-tetrahydropyrrolo[3,4-c]pyrazol-3-yl)-N-methylpicolinamide], the IC50 was less than 10 µM.

As to `N#CN1Cc2cnn(-c3cnn(-c4ccccc4)c3)c2C1` [Example 8, 1-(1-Phenyl-1H-pyrazol-4-yl)-4,6-dihydropyrrolo[3,4-c]pyrazole-5(1H)-carbonitrile], the IC50 is less than 10 µM.

Turning to `COc1ccc(C(C)C)cc1-c1nn(C)c2c1CN(C#N)C2` [Example 62, 3-(5-Isopropyl-2-methoxyphenyl)-1-methyl-4,6-dihydropyrrolo[3,4-c]pyrazole-5(1H)-carbonitrile], the IC50 was less than 10 µM.

Consider `CN1CCC(n2cc(-c3n[nH]c4c3CN(C#N)C4)cn2)CC1` [Example 68, 3-(1-(1-Methylpiperidin-4-yl)-1H-pyrazol-4-yl)-4,6-dihydropyrrolo[3,4-c]pyrazole-5(1H)-carbonitrile], for which the IC50 is less than 10 µM.

Consider `Cc1ccc2[nH]ncc2c1-c1n[nH]c2c1CN(C#N)C2` [Example 54, 3-(5-Methyl-1H-indazol-4-yl)-4,6-dihydropyrrolo[3,4-c]pyrazole-5(1H)-carbonitrile], for which the IC50 is less than 10 µM.

`Cc1cc(-c2n[nH]c3c2CN(C#N)C3)ccc1N1CCN(C)CC1` [Example 74, 3-(3-Methyl-4-(4-methylpiperazin-1-yl)phenyl)-4,6-dihydro-pyrrolo[3,4-c]pyrazole-5(1H)-carbonitrile]: the IC50 was less than 10 µM.

As to `Cc1ccc(F)c(-c2nn(C)c3c2CN(C#N)C3)c1` [Example 60, 3-(2-fluoro-5-methylphenyl)-1-methyl-4,6-dihydropyrrolo[3,4-c]pyrazole-5(1H)-carbonitrile], the IC50 is less than 10 µM.

Regarding `N#CN1Cc2[nH]nc(-c3cccc(S(=O)(=O)NC4CC4)c3)c2C1` [Example 55, 3-(5-Cyano-1,4,5,6-tetrahydropyrrolo[3,4-c]pyrazol-3-yl)-N-cyclopropylbenzene-sulfonamide], the IC50 is less than 10 µM.

On to `CC(=O)NCc1nn(-c2ccccc2)c2c1CN(C#N)C2` [Example 36, N-((5-Cyano-1-phenyl-1,4,5,6-tetrahydropyrrolo[3,4-c]pyrazol-3-yl)methyl)acetamide], for which the IC50 was in the range of 10 to 30 µM.

Consider `N#CN1Cc2[nH]nc(Nc3cc4ccccc4cn3)c2C1` [Example 31, 3-(Isoquinolin-3-ylamino)-4,6-dihydropyrrolo[3,4-c]pyrazole-5(1H)-carbonitrile], for which the IC50 is less than 10 µM.

As to `Cc1nn(-c2ccc(C(N)=O)cc2)c2c1CN(C#N)C2` [Example 16, 4-(5-Cyano-3-methyl-5,6-dihydropyrrolo[3,4-c]pyrazol-1(4H)-yl)benzamide], the IC50 was less than 10 µM.

`Cn1nc2c(c1Nc1cc3ccccc3cn1)CN(C#N)C2` [Example 30, 3-(Isoquinolin-3-ylamino)-2-methyl-2,6-dihydropyrrolo[3,4-c]pyrazole-5(4H)-carbonitrile]: the IC50 was less than 10 µM.

With `N#CN1Cc2cnn(-c3cccc(C(=O)NCc4ccccn4)c3)c2C1` [Example 13, 3-(5-Cyano-5,6-dihydropyrrolo[3,4-c]pyrazol-1(4H)-yl)-N-(pyridin-2-ylmethyl)benzamide], the IC50 is less than 10 µM.

For the molecule `COc1ccc(C(C)C)cc1-c1n[nH]c2c1CN(C#N)C2` [Example 26, 3-(5-Isopropyl-2-methoxyphenyl)-4,6-dihydropyrrolo[3,4-c]pyrazole-5(1H)-carbonitrile], the IC50 was less than 10 µM.

In the case of `Cn1ncc2cc(-c3n[nH]c4c3CN(C#N)C4)ccc21` [Example 52, 3-(1-Methyl-1H-indazol-5-yl)-4,6-dihydropyrrolo[3,4-c]pyrazole-5(1H)-carbonitrile], the IC50 is less than 10 µM.

As to `CC(C)Oc1ccc(-c2n[nH]c3c2CN(C#N)C3)cn1` [Example 50, 3-(6-Isopropoxypyridin-3-yl)-4,6-dihydropyrrolo[3,4-c]pyrazole-5(1H)-carbonitrile], the IC50 was less than 10 µM.
